Data: patent US10154994B2, “Ophthalmic formulations of tyrosine kinase inhibitors, methods of use thereof, and preparation methods thereof” (Allgenesis Biotherapeutics Inc., priority 2015, dated 2018)
Structures can show the parent of a compound that is named as a salt. Where two headings read alike, the source gives them in different places.

Test system: cornea suture-induced neovascularization
Details: for CNV Branching / CNV Length / CNV Area (~%): 6 eyes; for CNV Area (~%): percentage estimate of involved corneal circumference
Description: For this study, New Zealand white rabbits at approximately 5 months old with no visible signs of ocular defects were selected. Suture placement was performed on Day 1. Prior to surgery, the right eye of each animal was dilated using a mydriatic agent (1% tropicamide), and the conjunctiva was flushed with approximately 10 mL benzalkonium chloride (Zephiran™) diluted in sterile water, U.S.P. to 1:10,000 (v/v). Saline (0.9%) was also used to flush the eye along with benzalkonium chloride. Animals were anesthetized with isoflurane/oxygen during the procedure. Hydration of the eyes was maintained by irrigation with saline solution, as needed. The procedure was conducted under a dissecting or surgical microscope. The cornea of the right eye was exposed using an eyelid speculum. The central corneal area was appropriately marked as considered necessary by the surgeon. […] The outer point of suture placement was chosen near the limbus (1-2 mm), and the inner suture point was chosen near the corneal center, equidistant from the limbus, to obtain standardized angiogenic responses. The left eye remained untreated.
The study design is shown below in Table 7:
Dose formulations were administered by subconjunctival injection to the sutured right eye of each animal of the Avastin control group (5 mg) on Days 1 and 7, at a dose volume of 200 μL/dose immediately post suture placement. Dose formulations were given three times daily (TID) for the group administered with suspension vehicle, 0.3% Axitinib, 0.3% Nintedanib Ethanesulfonate, or 0.3% Sorafenib Tosylate for a duration of 14 days. […] The dosing volume was one 35 μL drop per dose. After the dose was administered, the upper and lower eyelids were gently held together to prevent the loss of material and to distribute the dose across the eye.
Ocular imaging and neovascularization assessments were performed once pre-treatment, and also once on Days 7 and 14. A pre-anesthetic cocktail of Ketamine (15 mg/kg) and Dexmedetomidine (0.25 mg/kg) was administered subcutaneously, and the animals were maintained with isoflurane/oxygen mix prior to and during the procedure. Still images of the cornea were taken from both eyes (from the center of each eye, nasally and temporally). Images were evaluated qualitatively and quantitatively to assess the degree of corneal neovascularization (CNV), and to determine the area affected by CNV. The length of the vessel incursion was measured from the limbus to the distal end of the encroaching CNV using a digital micrometer (in millimeters) for each selected image. Qualitative assessments included the percentage estimate of involved corneal circumference (using multiple images as necessary), and vessel branching.

[1] = topical TID for 14 days, study conclusion

Compound | corneal neovascularization observed (Day 7 and Day 14) | corneal neovascularization observed (Day 7) | efficacy compared with Avastin (Day 7) | CNV Branching (Day 7) | CNV Length (Day 7) | CNV Area (~%) (Day 7) [%] | corneal neovascularization observed (Day 14) | CNV Branching (Day 14) | efficacy compared with Avastin (vessel length, surface area and vessel branching; words) (Day 15) | tolerability in the CNV study (rabbit, in vivo) | efficacy versus Avastin in preventing or slowing CNV progression (study conclusion) | efficacy in preventing or slowing CNV progression [1] | tolerability in the CNV study (topical TID for 14 days) | CNV Length (Day 14) [mm] | CNV Area (~%) (Day 14) [%] | CNV Branching (Pre) | CNV Length (Pre) [mm] | CNV Area (~%) (Pre) [%]
CNC(=O)c1cc(Oc2ccc(NC(=O)Nc3ccc(Cl)c(C(F)(F)F)c3)cc2)ccn1 [Sorafenib Tosylate] | Slight corneal neovascularization | – | – | – | – | – | – | – | – | – | – | – | – | – | – | – | – | –
COC(=O)c1ccc2c(c1)NC(=O)/C2=C(\Nc1ccc(N(C)C(=O)CN2CCN(C)CC2)cc1)c1ccccc1 [Nintedanib Ethanesulfonate] | – | not observed | comparable to one given Avastin | very slight to moderate | approximately 0.5 mm | ~20 | sparse | no branching | slightly more efficacious | well-tolerated | more efficacious, or at least comparable to Avastin | efficacious in preventing or slowing CNV progression | – | – | – | – | – | –
CNC(=O)c1ccccc1Sc1ccc2c(/C=C/c3ccccn3)n[nH]c2c1 [Axitinib] | – | not observed | – | very slight to moderate | approximately 0.5 mm | ~20 | – | – | – | – | – | efficacious in preventing or slowing CNV progression | well-tolerated | – | – | – | – | –
Avastin: active control, 5 mg/eye by subconjunctival injection | – | – | – | 0 | 0 mm | 0 | minimal CNV | 1 | – | – | – | – | – | 0.45 | 13 | 0 | 0 | 0
